What was measured:
[1] = Description: The fertilizer composition will contain urea with reduced water solubility. […] Preferably no more than 30 to 60 wt. % of the urea is soluble. More preferably no more than 30 to 50 wt. % of urea is soluble.
XRD was of the granulated product which was powdered for recording of XRD.

[2] = Water leaching assay (2 g, 10 mL water, 8 min): water-soluble and water-insoluble nitrogen/urea; type: physicochemical; settings: 2 g leached with 10 mL water in 8 min, dried residue
Method: Determination of water-insoluble nitrogen: 2 g of the product in powder form, is weighed into a filter paper (Whatman 1) placed in a funnel. It is leached with 10 mL water added dropwise from a burette within a period of 8 min. The wet residue is placed together with the filter paper, in a petridish and dried at 50° C. After drying, the residue is ground and used for analysis of nitrogen.
Determination of water-soluble nitrogen: 2 g of the product in powder form, is weighed into a filter paper (Whatman 1) placed in a funnel. It is leached with 10 mL water added dropwise from a burette within a period of 8 min. The filtrate is placed together with the filter paper, in a petridish and dried at 50° C. After drying, the dried mass is weighed. It is analyzed for N as described above.

NC(N)=O [urea]
total N from fertilizer soluble in water [1]: 100 wt. % | urea content of residue after leaching with water [2]: no urea was detectable
